Laboratory results as given in PubChem BioAssay (NCI).
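Step 1: Grow cells in 96-well plates. Step 2: Expose to compound for 48 hours at 5 concentrations. Step 3: Interpolate endpoints linearly; if unreached, use highest concentration. TGI: total growth inhibition.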 Where a SMILES comes first, the peptide text is derived from it. [ ]: non-standard residue; d: D form. The star is where a group is joined. Cbz = O=C(OCc1ccccc1)*; Boc = CC(C)(C)OC(=O)*; Aib = CC(C)(N)C(=O)O; OBn = c1ccc(CO*)cc1; OtBu = CC(C)(C)O*; βAla = NCCC(=O)O

How the values were obtained:
Assay in all cases: inhibition of tumour cell growth, NCI panel, 48 h
NCI-H23 lung = test system: NCI-H23 lung
M19-MEL melanoma = test system: M19-MEL melanoma
XF 498 CNS = test system: XF 498 CNS
UO-31 renal = test system: UO-31 renal
LXFL 529 NSCLC = test system: LXFL 529 NSCLC
HT29 colon = test system: HT29 colon
HOP-62 NSCLC = test system: HOP-62 NSCLC
COLO 205 colon = test system: COLO 205 colon
RPMI-8226 leukemia = test system: RPMI-8226 leukemia
SNB-78 CNS = test system: SNB-78 CNS
DU-145 prostate = test system: DU-145 prostate
BT-549 breast = test system: BT-549 breast

## COS(=O)c1cc(Cl)cc(Cl)c1O (configuration not stated)
NCI-H23 lung
  TGI: > 100 µM
M19-MEL melanoma
  TGI: > 100 µM
XF 498 CNS
  TGI: > 100 µM
UO-31 renal
  TGI: > 100 µM
LXFL 529 NSCLC
  TGI: > 100 µM
HT29 colon
  TGI: > 100 µM
HOP-62 NSCLC
  TGI: > 100 µM

## C=C1C[C@]23C[C@@]1(O)CC[C@H]2[C@@]12C=C[C@H](O)[C@@](C)(C(=O)O1)[C@H]2[C@@H]3C(=O)O
NCI-H23 lung
  TGI: > 100 µM
M19-MEL melanoma
  TGI: > 100 µM
XF 498 CNS
  TGI: > 100 µM
UO-31 renal
  TGI: > 100 µM
COLO 205 colon
  TGI: > 100 µM
RPMI-8226 leukemia
  TGI: > 100 µM
HT29 colon
  TGI: > 100 µM
SNB-78 CNS
  TGI: > 100 µM
HOP-62 NSCLC
  TGI: > 100 µM

## CCN(CC)CCCNc1ccc2nnn3c4ccc(O)cc4c(=O)c1c23
NCI-H23 lung
  TGI: 23.5 µM
M19-MEL melanoma
  TGI: 26.8 µM
XF 498 CNS
  TGI: 28.9 µM
UO-31 renal
  TGI: 6.27 µM
DU-145 prostate
  TGI: 24.1 µM
BT-549 breast
  TGI: 27 µM
COLO 205 colon
  TGI: 19.5 µM
RPMI-8226 leukemia
  TGI: 32.2 µM
LXFL 529 NSCLC
  TGI: 21.2 µM
HT29 colon
  TGI: 14.1 µM
SNB-78 CNS
  TGI: 32.5 µM
HOP-62 NSCLC
  TGI: 22.6 µM

## CCOC(=O)C(Cc1ccccc1)(Cc1ccc(O)cn1)NC(=O)c1ccccc1 (configuration not stated)
NCI-H23 lung
  TGI: > 100 µM
UO-31 renal
  TGI: > 100 µM
DU-145 prostate
  TGI: > 100 µM
BT-549 breast
  TGI: 81 µM
COLO 205 colon
  TGI: 68.4 µM
RPMI-8226 leukemia
  TGI: > 100 µM
HT29 colon
  TGI: 81 µM
HOP-62 NSCLC
  TGI: > 100 µM

## Cc1ccc(S(=O)(=O)N2CCN(CCN(C)CCN3CCN(S(=O)(=O)c4ccc(C)cc4)CC3)CC2)cc1
NCI-H23 lung
  TGI: 44.8 µM
UO-31 renal
  TGI: 26.8 µM
DU-145 prostate
  TGI: 68.5 µM
BT-549 breast
  TGI: 30.6 µM
COLO 205 colon
  TGI: 38.9 µM
RPMI-8226 leukemia
  TGI: 37 µM
HT29 colon
  TGI: 29.9 µM
HOP-62 NSCLC
  TGI: 33 µM

## CCOC(=O)c1c(N2CCOCC2)[nH]c(=O)c(C(c2ccc(OC)cc2)c2c(O)c(C(=O)OCC)c(N3CCOCC3)[nH]c2=O)c1O
NCI-H23 lung
  TGI: > 100 µM
UO-31 renal
  TGI: > 100 µM
DU-145 prostate
  TGI: > 100 µM
BT-549 breast
  TGI: > 100 µM
COLO 205 colon
  TGI: > 100 µM
RPMI-8226 leukemia
  TGI: > 100 µM
HT29 colon
  TGI: > 100 µM
HOP-62 NSCLC
  TGI: > 100 µM

## CC(C)(C)OC(=O)CC(NC(=O)OC(C)(C)C)C(=O)NC(CCCCNC(=O)OCc1ccccc1)C(=O)NC(C)(C)C(=O)NCCC(=O)OCc1ccccc1 (configuration not stated) (Boc-D(OtBu)K(Cbz)[Aib][βAla]-OBn; configuration not given here)
NCI-H23 lung
  TGI: > 100 µM
UO-31 renal
  TGI: > 100 µM
DU-145 prostate
  TGI: > 100 µM
BT-549 breast
  TGI: > 100 µM
COLO 205 colon
  TGI: > 100 µM
RPMI-8226 leukemia
  TGI: > 100 µM
HT29 colon
  TGI: > 100 µM
HOP-62 NSCLC
  TGI: > 100 µM

## C/C=C/[C@H]1O[C@@](OC)([C@@H](C)[C@H](O)[C@H](C)[C@H]2OC(=O)/C(OC)=C/C(C)=C/[C@@H](C)[C@@H](O)[C@@H](C)[C@@H](O)[C@H](C)C/C(C)=C/C=C/[C@@H]2OC)CC(OC2CC(O)C(OC(N)=O)C(C)O2)[C@@H]1C (some centres not stated)
NCI-H23 lung
  TGI: 21.7 µM
UO-31 renal
  TGI: < 0.01 µM
DU-145 prostate
  TGI: 18.8 µM
BT-549 breast
  TGI: 17.6 µM
COLO 205 colon
  TGI: 1.8 µM
RPMI-8226 leukemia
  TGI: < 0.0378 µM
HT29 colon
  TGI: 1.17 µM
HOP-62 NSCLC
  TGI: 1.4 µM

## CCCCSc1n/c(=C\c2ccc(N(C)C)cc2)c2nnnn12
NCI-H23 lung
  TGI: > 100 µM
UO-31 renal
  TGI: > 100 µM
DU-145 prostate
  TGI: > 100 µM
BT-549 breast
  TGI: > 100 µM
COLO 205 colon
  TGI: > 100 µM
RPMI-8226 leukemia
  TGI: > 100 µM
HT29 colon
  TGI: > 100 µM
HOP-62 NSCLC
  TGI: > 100 µM

## N#CC1=CNc2sccc2S1(=O)=O
NCI-H23 lung
  TGI: > 100 µM
UO-31 renal
  TGI: > 100 µM
DU-145 prostate
  TGI: > 100 µM
BT-549 breast
  TGI: > 100 µM
COLO 205 colon
  TGI: > 100 µM
RPMI-8226 leukemia
  TGI: > 100 µM
HT29 colon
  TGI: > 100 µM
HOP-62 NSCLC
  TGI: > 100 µM

## CCOC(=O)C(C(=O)Cc1ccccc1)c1ccccc1 (configuration not stated)
NCI-H23 lung
  TGI: > 100 µM
M19-MEL melanoma
  TGI: > 100 µM
XF 498 CNS
  TGI: > 100 µM
UO-31 renal
  TGI: > 100 µM
COLO 205 colon
  TGI: > 100 µM
RPMI-8226 leukemia
  TGI: > 100 µM
LXFL 529 NSCLC
  TGI: > 100 µM
HT29 colon
  TGI: > 100 µM
SNB-78 CNS
  TGI: > 100 µM
HOP-62 NSCLC
  TGI: > 100 µM

## CSc1nncc(-c2cc3c(c(SC)n2)CCC3)n1
NCI-H23 lung
  TGI: > 100 µM
UO-31 renal
  TGI: > 100 µM
DU-145 prostate
  TGI: > 100 µM
BT-549 breast
  TGI: > 100 µM
COLO 205 colon
  TGI: > 100 µM
RPMI-8226 leukemia
  TGI: > 100 µM
HT29 colon
  TGI: > 100 µM
HOP-62 NSCLC
  TGI: > 100 µM
